The results in this text go back to patent publication US20150291598A1 (NOVARTIS AG, priority 2012, published 2015).

Like-named read-outs stand apart in the source and are kept apart here.

This assay has as its system P. falciparum (NF54 or 3D7 strain). Nature of the assay: Assay for P. falciparum proliferation in infected human blood cells (SYBR Green). It counts as cell-based, Plasmodium falciparum. Conditions: Plasmodium falciparum, 72 h, NF54 or 3D7 infected human erythrocytes, 72 hours, read-out: EC50 (nM), inhibitory efficacy in delaying P. falciparum proliferation in infected human blood cells. Put shortly:
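Infected erythrocytes (NF54 or 3D7; final 2.5% hematocrit, 0.3% parasitemia) were incubated with compounds for 72 h at 37 °C in low oxygen (3% O2, 4% CO2, 93% N2).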

The mark [1] stands for this setting: 3D7|NF54, Erythrocyte, in Homo sapiens.

Take `CN(C(=O)c1cn2c(-c3cc4ccccc4[nH]3)cnc2cn1)c1ccc(-c2cc3ccccc3[nH]2)nc1` [Compound 319, 3-(1H-indol-2-yl)-N-[6-(1H-indol-2-yl)pyridin-3-yl]-N-methylimidazo[1,2-a]pyrazine-6-carboxamide]: the EC50 (Erythrocyte) worked out at 3140 nM. Regarding `Cc1n[nH]c2ccc(-c3cnc4cnc(C(=O)N(C)c5ccc(Cl)nc5)cn34)cc12` [Compound 320, N-(6-chloropyridin-3-yl)-N-methyl-3-(3-methyl-1H-indazol-5-yl)imidazo[1,2-a]pyrazine-6-carboxamide], under “Erythrocyte”, the EC50 was determined as 2210 nM. As for `CN(C(=O)c1cn2c(-c3ccc(C(F)(F)F)cc3)cnc2cn1)c1ccc(N2CCOCC2)cn1` [Compound 321, N-methyl-N-[5-(morpholin-4-yl)pyridin-2-yl]-3-[4-(trifluoromethyl)phenyl]imidazo[1,2-a]pyrazine-6-carboxamide], the EC50 (Erythrocyte) was 2260 nM. Still for that read-out and setting: next, `CN(C(=O)N1CCC(F)CC1)c1cn2c(-c3ccc(C(F)(F)F)cc3)cnc2cn1` [Compound 322, 4-fluoro-N-methyl-N-{3-[4-(trifluoromethyl)phenyl]imidazo[1,2-a]pyrazin-6-yl}piperidine-1-carboxamide]: 2710 nM; `CN(C(=O)c1cn2c(-c3ccc(NC(C)(C)CN)cc3)cnc2cn1)c1ccc(C#N)cc1` [Compound 324, 3-{4-[(1-amino-2-methylpropan-2-yl)amino]phenyl}-N-(4-cyanophenyl)-N-methylimidazo[1,2-a]pyrazine-6-carboxamide]: 1230 nM; `CN(C(=O)c1cn2c(-c3ccc4occc4c3)cnc2cn1)c1ccc(Cl)nc1` [Compound 325, 3-(1-benzofuran-5-yl)-N-(6-chloropyridin-3-yl)-N-methylimidazo[1,2-a]pyrazine-6-carboxamide]: 4140 nM. On the same count and under the same terms, next, `CN(C(=O)c1cn2c(-c3ccc(C(F)(F)F)cc3)cnc2cn1)c1cccnc1` [Compound 326, N-methyl-N-(pyridin-3-yl)-3-[4-(trifluoromethyl)phenyl]imidazo[1,2-a]pyrazine-6-carboxamide]: 2090 nM; `Cc1cnc(N(C)C(=O)c2cn3c(-c4ccc(C(F)(F)F)cc4)cnc3cn2)cn1` [Compound 327, N-methyl-N-(5-methylpyrazin-2-yl)-3-[4-(trifluoromethyl)phenyl]imidazo[1,2-a]pyrazine-6-carboxamide]: 3310 nM. As for `Cc1ccnc(N(C)C(=O)c2cn3c(-c4ccc(C(F)(F)F)cc4)cnc3cn2)c1` [Compound 328], under setting [1], the EC50 is 1090 nM. With `CN(C(=O)c1cn2c(-c3ccc(C(F)(F)F)cc3)cnc2cn1)c1ccnc(C(F)(F)F)c1` [Compound 329, N-methyl-3-[4-(trifluoromethyl)phenyl]-N-[2-(trifluoromethyl)pyridin-4-yl]imidazo[1,2-a]pyrazine-6-carboxamide], the EC50 (Erythrocyte) was 2760 nM. Same read-out and setting: next, `CN(C(=O)c1cn2c(-c3ccc(-n4cccn4)cc3)cnc2cn1)c1ccc(Cl)nc1` [Compound 330, N-(6-chloropyridin-3-yl)-N-methyl-3-[4-(1H-pyrazol-1-yl)phenyl]imidazo[1,2-a]pyrazine-6-carboxamide]: 1960 nM; `CNC(=O)c1ccc(-c2cnc3cnc(C(=O)N(C)c4ccc(C#N)cc4)cn23)cn1` [Compound 331, 5-{6-[(4-cyanophenyl)(methyl)carbamoyl]imidazo[1,2-a]pyrazin-3-yl}-N-methylpyridine-2-carboxamide]: 1740 nM.

Turning to `CN(C(=O)c1cn2c(-c3ccc(C(F)(F)F)c(F)c3)cnc2cn1)c1ccc(Cl)nc1` [Compound 332, N-(6-chloropyridin-3-yl)-3-[3-fluoro-4-(trifluoromethyl)phenyl]-N-methylimidazo[1,2-a]pyrazine-6-carboxamide], under “Erythrocyte”, the EC50 came out at 3410 nM. With `COc1ncc(-c2cnc3cnc(C(=O)N(C)c4ccc(C#N)cc4)cn23)cn1` [Compound 333, N-(4-cyanophenyl)-3-(2-methoxypyrimidin-5-yl)-N-methylimidazo[1,2-a]pyrazine-6-carboxamide], the EC50 (Erythrocyte) worked out at 4130 nM. As for `CCc1ccnc(NC(=O)c2cn3c(-c4ccc(C(F)(F)F)cc4)cnc3cn2)c1` [Compound 334, N-(4-ethylpyridin-2-yl)-3-[4-(trifluoromethyl)phenyl]imidazo[1,2-a]pyrazine-6-carboxamide], where the note is “Erythrocyte”, the EC50 was over 5190 nM.

With `COc1cncc(-c2cnc3cnc(C(=O)N(C)c4ccc(C#N)cc4)cn23)n1` [Compound 335, N-(4-cyanophenyl)-3-(6-methoxypyrazin-2-yl)-N-methylimidazo[1,2-a]pyrazine-6-carboxamide], the EC50 (Erythrocyte) turned out to be 5340 nM.

As for `COc1ccc(-c2cnc3cnc(C(=O)N(C)c4ccc(Cl)nc4)cn23)cn1` [Compound 336, N-(6-chloropyridin-3-yl)-3-(6-methoxypyridin-3-yl)-N-methylimidazo[1,2-a]pyrazine-6-carboxamide], the EC50 (Erythrocyte) came to 6930 nM. Same read-out and setting: next, `CN(C(=O)c1cn2c(-c3ccc(C(F)(F)F)cc3)cnc2cn1)c1ccc(C(F)(F)F)cn1` [Compound 337, N-methyl-3-[4-(trifluoromethyl)phenyl]-N-[5-(trifluoromethyl)pyridin-2-yl]imidazo[1,2-a]pyrazine-6-carboxamide]: over 7160 nM. As to `COc1ccc(-c2cnc3cnc(CN(C)c4ccc(C)cn4)cn23)cn1` [Compound 338], the EC50 under setting [1] is 4080 nM. On to `Cc1noc(-c2ccc(-c3cnc4cnc(C(=O)N(C)c5ccc(C#N)cc5)cn34)cc2)n1` [Compound 339, N-(4-cyanophenyl)-N-methyl-3-[4-(3-methyl-1,2,4-oxadiazol-5-yl)phenyl]imidazo[1,2-a]pyrazine-6-carboxamide], for which the EC50 (Erythrocyte) came to 1260 nM. Regarding `CN(C(=O)c1cn2c(-c3ccc(N4CCOCC4)cc3)cnc2cn1)c1ccc(Cl)nc1` [Compound 340, N-(6-chloropyridin-3-yl)-N-methyl-3-[4-(morpholin-4-yl)phenyl]imidazo[1,2-a]pyrazine-6-carboxamide], the EC50 (Erythrocyte) is 6850 nM. On the same count and under the same terms, with `CN(C(=O)c1cn2c(-c3ccc(C#N)cc3)c(C(F)(F)F)nc2cn1)c1ccc(C#N)cc1` [Compound 341, N,3-bis(4-cyanophenyl)-N-methyl-2-(trifluoromethyl)imidazo[1,2-a]pyrazine-6-carboxamide] the figure was 5790 nM; with `CN(C(=O)c1cn2c(-c3ccc(C(F)(F)F)cc3)cnc2cn1)c1ccc(Cl)nc1Cl` [Compound 342, N-(2,6-dichloropyridin-3-yl)-N-methyl-3-[4-(trifluoromethyl)phenyl]imidazo[1,2-a]pyrazine-6-carboxamide], 393 nM. Still for that read-out and setting: with `CN(C(=O)c1cn2c(-c3ccc(C(=O)NC4CC4)cc3)cnc2cn1)c1ccc(Cl)nc1` [Compound 343, N-(6-chloropyridin-3-yl)-3-[4-(cyclopropylcarbamoyl)phenyl]-N-methylimidazo[1,2-a]pyrazine-6-carboxamide] the figure was 6780 nM; with `CN(C)c1ncc(-c2cnc3cnc(C(=O)N(C)c4ccc(C#N)cc4)cn23)cn1` [Compound 344, N-(4-cyanophenyl)-3-[2-(dimethylamino)pyrimidin-5-yl]-N-methylimidazo[1,2-a]pyrazine-6-carboxamide], 2990 nM; with `Cc1cccc(N(C)C(=O)c2cn3c(-c4ccc(C(F)(F)F)cc4)cnc3cn2)n1` [Compound 345, N-methyl-N-(6-methylpyridin-2-yl)-3-[4-(trifluoromethyl)phenyl]imidazo[1,2-a]pyrazine-6-carboxamide], 2300 nM. Consider `CN(C(=O)c1cn2c(-c3ccc(C(F)(F)F)cc3)cnc2cn1)c1ccccc1OC(F)F` [Compound 346, N-[2-(difluoromethoxy)phenyl]-N-methyl-3-[4-(trifluoromethyl)phenyl]imidazo[1,2-a]pyrazine-6-carboxamide], for which, where the note is “Erythrocyte”, the EC50 was found to be 242 nM. Still for that read-out and setting: with `CN(c1cn2c(-c3ccc(C(F)(F)F)cc3)cnc2cn1)S(=O)(=O)c1ccc(C#N)cc1` [Compound 347, 4-cyano-N-methyl-N-{3-[4-(trifluoromethyl)phenyl]imidazo[1,2-a]pyrazin-6-yl}benzene-1-sulfonamide] the figure was 3260 nM. The same measure, in the same setting: with `CN(C(=O)c1cn2c(-c3ccc(C(F)(F)F)cc3)cnc2cn1)c1cc(C(F)(F)F)ccn1` [Compound 348, N-methyl-3-[4-(trifluoromethyl)phenyl]-N-[4-(trifluoromethyl)pyridin-2-yl]imidazo[1,2-a]pyrazine-6-carboxamide] the figure was 4690 nM; with `CN(C(=O)c1cn2c(-c3ccc4[nH]ncc4c3)cnc2cn1)c1ccc(Cl)nc1` [Compound 349, N-(6-chloropyridin-3-yl)-3-(1H-indazol-5-yl)-N-methylimidazo[1,2-a]pyrazine-6-carboxamide], 4680 nM; with `CC1(C)CN(C(=O)c2cn3c(-c4ccc(C(F)(F)F)cc4)cnc3cn2)c2ccc(C#N)cc2O1` [Compound 350, 2,2-dimethyl-4-({3-[4-(trifluoromethyl)phenyl]imidazo[1,2-a]pyrazin-6-yl}carbonyl)-3,4-dihydro-2H-1,4-benzoxazine-7-carbonitrile], over 5630 nM.

On to `CN(C(=O)c1cn2c(-c3cccc(F)n3)cnc2cn1)c1ccc(C#N)cc1` [Compound 351, N-(4-cyanophenyl)-3-(6-fluoropyridin-2-yl)-N-methylimidazo[1,2-a]pyrazine-6-carboxamide], for which the EC50 (Erythrocyte) stood at 5620 nM. The same measure, in the same setting: next, `CN(C(=O)c1cn2c(-c3ccc(OC(C)(C)C(N)=O)cc3)cnc2cn1)c1ccc(C#N)cc1` [Compound 352, 3-[4-(1-carbamoyl-1-methylethoxy)phenyl]-N-(4-cyanophenyl)-N-methylimidazo[1,2-a]pyrazine-6-carboxamide]: 876 nM; `COc1ccc(N(C)C(=O)c2cn3c(-c4ccc(C(F)(F)F)cc4)cnc3cn2)nc1` [Compound 353, N-(5-methoxypyridin-2-yl)-N-methyl-3-[4-(trifluoromethyl)phenyl]imidazo[1,2-a]pyrazine-6-carboxamide]: 3900 nM.
